Measured values published in paper PMC8443647, “Hybrid derivative of cathelicidin and human beta defensin-2 against Gram-positive bacteria: A novel approach for the treatment of bacterial keratitis” (Scientific Reports, 2021).
Values after ≈ are worked out from the molar mass of the structure shown. Values joined by “and” are separate entries in the source; they are usually repeats but may differ in a detail not shown here. Identical values can stand only once. Like-named read-outs stand apart in the source and are kept apart here. Peptide text beside a SMILES is read from it.

Assays:
[1] = in vitro; type: cell-based, human; conditions: human
Method: (§1) Cell viability and cytotoxicity of antibiotics and peptides were determined against human corneal epithelial cells (HCE-2, CRL-11135, ATCC, Manassas, Virginia, USA) using cell-counting-kit-8 (CCK-8) assay (Sigma Aldrich, Merck Life Science UK Limited, Dorset, UK) and lactate dehydrogenase (LDH) assay (ThermoFisher Scientific, UK), respectively, as per manufacturer’s guidelines. HCE-2 cells were cultured and seeded into a 96-well plate at a density of 7.5 × 10^3 cells/well and allowed to attach overnight and grew to 80–90% confluency in keratinocyte serum free medium (KSFM) supplemented with human recombinant epidermal growth factor, bovine pituitary extract, hydrocortisone, and insulin. Once the confluency reached 80–90%, the cells were incubated with treatment for 3 h before OD450 measurement was taken using BMG Clariostar microplate reader (BMG Labtech Ltd., Aylesbury, UK). Appropriate controls were used, including 0.1% Triton X-100 as positive control and KSFM as negative control. Cell viability was calculated using the following formula: [([…]) × 100; I = intensity] and cytotoxicity was calculated using the following formula: [((Itreatment – INC)/(IPC – INC)) × 100].

[2] = system: human corneal epithelial cells (HCE-2); experiment: in vitro; type: cell-based; conditions: human, 3 h, 200 µg/ml
Method: as §1

[3] = system: P. aeruginosa PAO1-L; experiment: microbe, parasite or virus in culture; type: cell-based; conditions: Pseudomonas aeruginosa, PAO1, 24 h, caMHB, 24 h, read-out: MIC
Text: (§2) A range of Gram-positive and Gram-negative laboratory- and clinical-strain bacteria were used for the experiments. These included laboratory-strain methicillin-sensitive S. aureus (MSSA; including SH1000 and ATCC SA29213), laboratory-strain MRSA (ATCC MRSA43300), clinical-strain MRSA (MRSA-OS; an IK isolate), laboratory-strain methicillin-sensitive Staphylococcus epidermidis (MSSE; ATCC SE12228), laboratory invasive-strain P. aeruginosa (PAO1-L), and clinical cytotoxic-strain P. aeruginosa (PA-OS; an IK isolate).
(§3) In vitro antimicrobial efficacy of the antibiotics and designed HDPs was determined using an established MIC assay with broth microdilution method approved by the Clinical and Laboratory Standards Institute (CLSI)[64]. Briefly, the microorganisms were cultured on Tryptone Soya Agar (TSA) and incubated overnight for 18–21 h at 37 °C. Bacterial inoculums were subsequently prepared using the direct colony suspension method. Three to five bacterial colonies were obtained from the agar plate and inoculated into an Eppendorf tube containing 1 ml of cation-adjusted Muller-Hinton broth (caMHB), consisting of 20–25 mg/L calcium ions (Ca^2+) and 10–12.5 mg/L magnesium ions (Mg^2+). The bacterial suspension was adjusted to achieve a turbidity equivalent to 0.1 OD600 or 0.5 MacFarland, containing ~ 1.5 × 10^8 colony-forming unit (CFU)/ml, which was then further diluted in 1:150 in caMHB to reach a final bacterial concentration of ~ 1 × 10^6 colony forming units (CFU)/ml. Each treatment (peptide or antibiotic) was prepared in 1:2 serial dilution in 96-well polypropylene microplates (with a final treatment volume of 50 μl per well), followed by the addition of 50 μl of 1 × 10^6 CFU/ml bacteria into each well (with a final bacterial concentration of 5 × 10^5 CFU/ml).

[4] = system: P. aeruginosa PA-OS; experiment: microbe, parasite or virus in culture; type: cell-based; conditions: 24 h
Text: as §2, §3

[5] = system: S. aureus ATCC SA29213; experiment: Multipassage antimicrobial resistance (AMR) assay; type: cell-based, Staphylococcus aureus
Method: Multipassage AMR assays were performed to evaluate the risk of development of AMR of S. aureus (ATCC SA29213) against CaD23 and amikacin over 10 consecutive passages (days). The assay was conducted in a similar manner of the MIC assay described above. […] This was then further diluted in 1:150 in caMHB to reach a final bacterial concentration of ~ 1 × 10^6 colony forming units (CFU)/ml. […] Development of AMR was defined as ≥ fourfold increase in the MIC level compared to the baseline.

[6] = system: S. aureus (SH1000); experiment: Time-kill kinetics assay; type: cell-based, Staphylococcus aureus
Method: Time-kill kinetics assay was performed to determine the time-dependent and concentration-dependent in vitro antimicrobial effects of the CaD23 and amikacin, a commonly used topical antibiotics for BK, against 100 μl of ~ 1 × 10^6 CFU/ml of SH1000 (1:1 treatment-bacteria ratio) at various time points, including 0 min (pre-treatment), 15 min, 30 min, 60 min, 2 h, 4 h, and 24 h. At each time point, 10 μl of the treated bacteria was transferred to an Eppendorf tube containing 90 μl of PBS, which was then serially diluted in 1:10 concentration for inoculation on agar plates and incubated overnight for 18–21 h at 37 °C for enumeration of CFU.

[7] = Hemolytic assay; type: cell-based; conditions: human
Method: (§4) Ethical approval was obtained from the Local Research Ethics Committee of University of Nottingham prior to the experiment (Ref: 176-1812). The experiment was conducted in accordance with the relevant guidelines and regulations. Hemolytic assay was performed according to the previously established protocol. Briefly, 5 ml of fresh human blood was collected from healthy participants with written informed consent, in an EDTA tube and centrifuged for 10 min at 1300g at 10 °C for separation of plasma. The remaining erythrocytes were rinsed and centrifuged further three times in Ca^2+/Mg^2+ free Dulbecco’s phosphate-buffered saline (DPBS). Subsequently, erythrocytes were diluted to 8% v/v in DPBS and incubated with 100 μl of treatment, positive control (1% Triton X-100) and negative control (DPBS), all in 1:1 ratio, for 1 h (final erythrocytes concentration = 4% v/v). After 1 h of incubation, the plate was centrifuged at 500×g for 5 min and 100 μl of supernatant of each well was transferred into a 96-well plate for measurement at OD540. Hemolysis (%) was calculated as [(Itreatment – INC)/(IPC – INC)] × 100.

[8] = system: fresh human erythrocytes; experiment: Hemolytic assay; type: cell-based; conditions: 1 h
Method: as §4

[9] = system: S. aureus SH1000; experiment: microbe, parasite or virus in culture; type: cell-based, Staphylococcus aureus; conditions: Staphylococcus aureus, SH1000, 24 h, caMHB, 24 h, read-out: MIC
Text: as §2, §3

[10] = system: MRSA-OS; experiment: microbe, parasite or virus in culture; type: cell-based, Staphylococcus aureus; conditions: 24 h
Text: as §2, §3

[11] = system: human corneal epithelial cells (HCE-2); experiment: cells; type: cell-based; conditions: Homo sapiens, Corneal epithelial cell, 3 h, read-out: IC50 (concentration causing 50% inhibition of cell viability)
Method: as §1

[12] = system: MRSA ATCC 43300; type: cell-based, Staphylococcus aureus; conditions: ATCC 43300, 24 h
Text: as §2, §3

[13] = system: S. aureus ATCC 29213; type: cell-based, Staphylococcus aureus; conditions: ATCC 29213, 24 h
Text: as §2, §3

[14] = system: MSSA; type: cell-based, Staphylococcus aureus
Text: as §2, §3

[15] = system: MRSA; type: cell-based, Staphylococcus aureus
Text: as §2, §3

[16] = system: S. epidermidis ATCC 12228; type: cell-based, Staphylococcus epidermidis; conditions: ATCC 12228, 24 h
Text: as §2
In vitro antimicrobial efficacy of the antibiotics and designed HDPs was determined using an established MIC assay with broth microdilution method approved by the Clinical and Laboratory Standards Institute (CLSI)[64]. Briefly, the microorganisms were cultured on Tryptone Soya Agar (TSA) and incubated overnight for 18–21 h at 37 °C. Bacterial inoculums were subsequently prepared using the direct colony suspension method. Three to five bacterial colonies were obtained from the agar plate and inoculated into an Eppendorf tube containing 1 ml of cation-adjusted Muller-Hinton broth (caMHB), consisting of 20–25 mg/L calcium ions (Ca^2+) and 10–12.5 mg/L magnesium ions (Mg^2+). […]

[17] = system: corneal epithelial wound; conditions: mouse, in vivo
Method: The in vivo studies were conducted in two stages, namely the corneal wound healing study (for safety) and BK study (for efficacy), based on previously established protocols[54],[65]. […] The mice were maintained and treated in compliance with the Guide for the Care and Use of Laboratory Animals (National Research Council) and the ARVO statement for the Use of Animals in Ophthalmic and Vision Research. […]
In vivo safety of CaD23 (in 0.03%, 0.05% or 0.1%), and PBS (negative control) was first determined in a mouse corneal epithelial wound healing model. In the absence of in vivo pilot data of our designed HDPs, the sample size was calculated based on a previous study. […]
All mice were randomly allocated to each of the four treatment groups (n = 4 mice/group). […] Corneal epithelial defect was assessed using a cobalt-blue filter-equipped slit-lamp biomicroscopy and photography with staining with topical sodium fluorescein 1% at baseline (immediately post-debridement) and daily up to 3 days post-treatment. Fluorescein-stained images of the corneal wound defect were analyzed using ImageJ software (https://imagej.nih.gov/ij/)[68]. The main outcome measure was the wound size at the end of day 1, 2 and 3 [expressed as % of the original wound size in mean and standard deviation (SD)]. […]

For `NCC[C@H](O)C(=O)N[C@@H]1C[C@H](N)[C@@H](O[C@H]2O[C@H](CN)[C@@H](O)[C@H](O)[C@H]2O)[C@H](O)[C@H]1O[C@H]1O[C@H](CO)[C@@H](O)[C@H](N)[C@H]1O` [Amikacin, amikacin, reference compound], the CC50 at 3 h [1] was > 200 µg/mL, the “Lmax (%): percentage of cytotoxicity at 200 µg/ml” value [2] was 0.0 (0.1) % and the MIC ([3]; 0 mM NaCl) was 0.63 µg/mL and 1.08 µM. For the same compound, the MIC ([3]; 150 mM NaCl) was 1.25 µg/mL and 2.13 µM, the MIC ([4]; Pseudomonas aeruginosa, 0 mM NaCl, caMHB, read-out: MIC) was 0.63 µg/mL and 1.08 µM and the MIC ([4]; Pseudomonas aeruginosa, 150 mM NaCl, caMHB, read-out: MIC) was 1.25 µg/mL and 2.13 µM. For the same compound, the “Increase in the MIC after the 2nd passage” value ([5]; 2nd passage) was “fourfold”, the “Increase in the MIC after the 10th passage” value ([5]; 10 consecutive passages (days)) was 32 fold and the “Development of AMR after 10 consecutive passages” value ([5]; AMR defined as ≥ fourfold increase in MIC vs baseline) was “developed significant AMR”. For the same compound, the “Bacterial re-growth at 24 h time-point” value ([6]; CaD23 25 μg/ml, amikacin 10 μg/ml and 25 μg/ml) was “no evidence of bacterial re-growth”, the “Time to complete killing” value ([6]; amikacin 20 μg/ml (8× MIC), caMHB with 150 mM NaCl) was ≤ 4 h and the “Speed of killing relative to CaD23 (times slower)” value ([6]; amikacin 25 μg/ml (20× MIC) vs CaD23 25 μg/ml (2× MIC)) was 8 times. The “Time to complete killing” value ([6]; amikacin 8× MIC (10 μg/ml), caMHB) was ≤ 4 h, the hemolysis at 1 h, 200 µg/ml ([7]; fresh human erythrocytes (4% v/v), human erythrocytes, 200 µg/ml, 1 h, mean (SD), read-out: Hmax (%): percentage of hemolysis at 200 µg/ml) was 0% and the “HC50 (concentration causing 50% hemolysis)” value [8] was > 200 µg/mL. The MIC ([9]; 0 mM NaCl) was 1.25 µg/mL and 2.13 µM, the MIC ([9]; 150 mM NaCl) was 2.5 µg/mL and 4.27 µM and the MIC ([10]; 150 mM NaCl, caMHB) was 10 µg/mL. The MIC ([10]; 150 mM NaCl, caMHB, read-out: MIC) was 17.1 µM, the MIC ([10]; Staphylococcus aureus, MRSA, 0 mM NaCl, caMHB, read-out: MIC) was 10 µg/mL and 17.1 µM and the IC50 [11] was > 200 µg/mL.
With `CC[C@H](C)[C@H](NC(=O)[C@H](CCCNC(=N)N)NC(=O)[C@H](CCC(N)=O)NC(=O)[C@@H](NC(=O)[C@@H](NC(=O)[C@H](CCCNC(=N)N)NC(=O)[C@@H](N)CCCCN)[C@@H](C)CC)C(C)C)C(=O)N[C@@H](CCCCN)C(=O)N[C@@H](CC(=O)O)C(=O)N[C@@H](Cc1c[nH]c2ccccc12)C(=O)N[C@@H](CC(C)C)C(=O)N[C@@H](CCCNC(=N)N)C(=O)N[C@@H](CCCCN)C(=O)N[C@@H](CC(C)C)C(=O)N[C@@H](CS)C(=O)N[C@@H](CCCCN)C(=O)N[C@@H](CCCCN)C(=O)N[C@@H](Cc1c[nH]c2ccccc12)C(=O)O` [CaD23, KRIVQRIKDW LRKLCKKW] (H-KRIVQRIKDWLRKLCKKW-OH; N-terminus and C-terminus assumed) the CC50 at 3 h [1] was > 200 µg/mL, the MIC [12] was 100 µg/mL (≈ 41.7 µM) and the MIC [13] was 50 µg/mL (≈ 20.9 µM). The MIC [14] was 12.5 to 25.0 µg/mL, the MIC [15] was 25 µg/mL (≈ 10.4 µM) and the MIC ([4]; PA-OS) was 50 µg/mL (≈ 20.9 µM). For the same compound, the hemolysis at 1 h, 200 µg/ml ([7]; Hmax (%): percentage of hemolysis at 200 µg/ml) was < 10%, the MIC [16] was 5.2 µM (≈ 12.5 µg/mL) and the MIC ([10]; -OS) was 100 µg/mL. The “Mean wound size (% of original wound size)” value [17] was 28.5 ± 19.9%.
